Measurements published in ChEMBL document CHEMBL4732094, “Synthesis of some new benzoxazole derivatives and investigation of their anticancer activities” (Eur J Med Chem, 2021).

What was measured:
MCF7 [1] = assay: Induction of apoptosis in human MCF7 cells assessed as early apoptotic cells at IC50 concentration measured after 24 hrs by Annexin V-FITC/PI staining based flow cytometry method (reference value: 2.2%); type: functional
HepG2 [2] = assay: Induction of apoptosis in human HepG2 cells assessed as viable cells at IC50 concentration measured after 24 hrs by Annexin V-FITC/PI staining based flow cytometry method (reference value: 87.8%); type: functional
HT-29 [3] = assay: Induction of apoptosis in human HT-29 cells assessed as late apoptotic cells at IC50 concentration measured after 24 hrs by Annexin V-FITC/PI staining based flow cytometry method (reference value: 1.5%); type: functional
MCF7 [4] = assay: Induction of apoptosis in human MCF7 cells assessed as viable cells at IC50 concentration measured after 24 hrs by Annexin V-FITC/PI staining based flow cytometry method (reference value: 94.9%); type: functional
MCF7 [5] = assay: Induction of apoptosis in human MCF7 cells assessed as late apoptotic cells at IC50 concentration measured after 24 hrs by Annexin V-FITC/PI staining based flow cytometry method (reference value: 1.8%); type: functional
C6 [6] = assay: Cytotoxicity against rat C6 cells assessed as cell viability measured after 24 hrs by MTT assay; type: functional, cell-based; conditions: C6, 24 h
HepG2 [7] = assay: Induction of apoptosis in human HepG2 cells assessed as necrotic cells at IC50 concentration measured after 24 hrs by Annexin V-FITC/PI staining based flow cytometry method (reference value: 4.6%); type: functional
A549 = assay: Cytotoxicity against human A549 cells assessed as cell viability measured after 24 hrs by MTT assay; type: functional, cell-based; conditions: A549, 24 h
MCF7 [8] = assay: Induction of apoptosis in human MCF7 cells assessed as necrotic cells at IC50 concentration measured after 24 hrs by Annexin V-FITC/PI staining based flow cytometry method (reference value: 1%); type: functional
C6 [9] = assay: Induction of apoptosis in rat C6 cells assessed as apoptotic cells at IC50 concentration measured after 24 hrs by Annexin V-FITC/PI staining based flow cytometry method relative to control; type: functional
HT-29 [10] = assay: Induction of apoptosis in human HT-29 cells assessed as necrotic cells at IC50 concentration measured after 24 hrs by Annexin V-FITC/PI staining based flow cytometry method (reference value: 7.2%); type: functional
HepG2 [11] = assay: Cytotoxicity against human HepG2 cells assessed as cell viability measured after 24 hrs by MTT assay; type: functional, cell-based; conditions: HepG2, 24 h
HT-29 [12] = assay: Induction of apoptosis in human HT-29 cells assessed as viable cells at IC50 concentration measured after 24 hrs by Annexin V-FITC/PI staining based flow cytometry method (reference value: 90.3%); type: functional
HT-29 [13] = assay: Induction of apoptosis in human HT-29 cells assessed as early apoptotic cells at IC50 concentration measured after 24 hrs by Annexin V-FITC/PI staining based flow cytometry method (reference value: 1.1%); type: functional
HT-29 [14] = assay: Cytotoxicity against human HT-29 cells assessed as cell viability measured after 24 hrs by MTT assay; type: functional, cell-based; conditions: HT-29, 24 h
C6 [15] = assay: Inhibition of DNA synthesis in rat C6 cells assessed as reduction in cell proliferation measured after 24 to 48 hrs by BrdU proliferation assay; type: functional, cell-based; conditions: time 24-48 hrs
HepG2 [16] = assay: Induction of apoptosis in human HepG2 cells assessed as early apoptotic cells at IC50 concentration measured after 24 hrs by Annexin V-FITC/PI staining based flow cytometry method (reference value: 0.9%); type: functional
HepG2 [17] = assay: Induction of apoptosis in human HepG2 cells assessed as late apoptotic cells at IC50 concentration measured after 24 hrs by Annexin V-FITC/PI staining based flow cytometry method (reference value: 8.7%); type: functional
HepG2 [18] = assay: Inhibition of DNA synthesis in human HepG2 cells assessed as reduction in cell proliferation measured after 24 to 48 hrs by BrdU proliferation assay; type: functional, cell-based; conditions: time 24-48 hrs
MCF7 [19] = assay: Inhibition of DNA synthesis in human MCF7 cells assessed as reduction in cell proliferation measured after 24 to 48 hrs by BrdU proliferation assay; type: functional, cell-based; conditions: time 24-48 hrs
HT-29 [20] = assay: Inhibition of DNA synthesis in human HT-29 cells assessed as reduction in cell proliferation measured after 24 to 48 hrs by BrdU proliferation assay; type: functional, cell-based; conditions: time 24-48 hrs
[21] = Selectivity index, ratio of IC50 for cytotoxicity against mouse NIH3T3 cells to IC50 for cytotoxicity against human A549 cells; type: toxicity, cell-based; conditions: NIH3T3 cells versus A549 cells, read-out: Ratio IC50
[22] = Drug metabolism in human HepG2 cells assessed as amine metabolite formation after 24 hrs by LCMS-IT-TOF analysis; type: ADME, cell-based; conditions: hepg2, 24 h
[23] = Selectivity index, ratio of IC50 for cytotoxicity against mouse NIH3T3 cells to IC50 for cytotoxicity against human MCF7 cells; type: toxicity, cell-based; conditions: NIH3T3 cells versus MCF7 cells, read-out: Ratio IC50
MCF7 [24] = assay: Cytotoxicity against human MCF7 cells assessed as cell viability measured after 24 hrs by MTT assay; type: functional, cell-based; conditions: MCF7, 24 h
NIH3T3 = assay: Cytotoxicity against mouse NIH3T3 cells assessed as cell viability measured after 24 hrs by MTT assay; type: cell-based; conditions: NIH3T3, 24 h
[25] = Selectivity index, ratio of IC50 for cytotoxicity against mouse NIH3T3 cells to IC50 for cytotoxicity against human HT-29 cells; type: toxicity, cell-based; conditions: NIH3T3 cells versus HT-29 cells, read-out: Ratio IC50
[26] = Selectivity index, ratio of IC50 for cytotoxicity against mouse NIH3T3 cells to IC50 for cytotoxicity against human HepG2 cells; type: toxicity, cell-based; conditions: NIH3T3 cells versus HepG2 cells, read-out: Ratio IC50
[27] = Selectivity index, ratio of IC50 for cytotoxicity against mouse NIH3T3 cells to IC50 for cytotoxicity against rat C6 cells; type: toxicity, cell-based; conditions: NIH3T3 cells versus C6 cells, read-out: Ratio IC50
[28] = Drug metabolism in human HepG2 cells assessed as oxidative dehalogenation after 24 hrs by LCMS-IT-TOF analysis; type: ADME, cell-based; conditions: hepg2, 24 h

Compound | Activity (HepG2 [2]) [%] | Activity (HT-29 [3]) [%] | IC50 (C6 [6]) [µM] | Activity (HepG2 [7]) [%] | IC50 (A549) [µM] | Activity (C6 [9]) [%] | Activity (HT-29 [10]) [%] | IC50 (HepG2 [11]) [µM] | Activity (HT-29 [12]) [%] | Activity (HT-29 [13]) [%] | IC50 (HT-29 [14]) [µM] | inhibition (C6 [15]) | Activity (HepG2 [16]) [%] | Activity (HepG2 [17]) [%] | inhibition (HepG2 [18]) | inhibition (HT-29 [20]) | selectivity ratio [21] | selectivity ratio [23] | IC50 (MCF7 [24]) [µM] | IC50 (NIH3T3) [µM] | also measured
COc1cccc2c1C(=O)c1c(O)c3c(c(O)c1C2=O)C[C@@](O)(C(=O)CO)C[C@@H]3O[C@H]1C[C@H](N)[C@H](O)[C@H](C)O1 [DOXORUBICIN] | 73.6 | 6.6 | 25.6 | 4.2 | 10.8 | 35.7 | 3.5 | 18 | 88 | 1.9 | 16.3 | Dose-dependent effect | 0.9 | 21.4 | Dose-dependent effect | Dose-dependent effect |  |  |  |  | Activity (MCF7 [1]): 1%; Activity (MCF7 [4]): 42.9%; Activity (MCF7 [5]): 49.3%; Activity (MCF7 [8]): 6.8%; inhibition (MCF7 [19]): Dose-dependent effect
CN(C)CCN1CCN(CC(=O)Nc2ccc(-c3nc4cc(Cl)ccc4o3)cc2)CC1 | 85.2 |  | 1.03 | 0.8 | 7.1 | 10.7 |  | 2.64 |  |  | 4.47 | Dose-dependent effect | 3.7 | 10.3 | Dose-dependent effect |  | 4.04 | 3.62 | 7.92 | 28.7 | Drug metabolism [22]: Metabolite_Detected; selectivity ratio [25]: 6.41; selectivity ratio [26]: 10.9; selectivity ratio [27]: 27.8; Drug metabolism [28]: Metabolite_Detected
Cc1ccc2oc(-c3ccc(NC(=O)CN4CCN(CCN(C)C)CC4)cc3)nc2c1 |  | 8.5 | 1.63 |  | 3.66 | 19.3 | 0.4 | 1.27 | 76 | 15 | 1.79 | Dose-dependent effect |  |  |  | Dose-dependent effect | 7.9 | 1.22 | 23.7 | 28.9 | selectivity ratio [25]: 16.2; selectivity ratio [26]: 22.8; selectivity ratio [27]: 17.8
CN(C)CCCN1CCN(CC(=O)Nc2ccc(-c3nc4cc(Cl)ccc4o3)cc2)CC1 | 62.6 | 7.4 | 0.91 | 1.1 | 4.32 | 13.6 | 0.6 | 1.25 | 85.5 | 6.5 | 1.64 | Dose-dependent effect | 8.3 | 27.9 | Dose-dependent effect | Dose-dependent effect | 5.96 | 15.6 | 1.65 | 25.8 | Activity (MCF7 [1]): 23.7%; Drug metabolism [22]: Metabolite_Detected; Activity (MCF7 [4]): 25.9%; Activity (MCF7 [5]): 46.4%; selectivity ratio [25]: 15.7; Activity (MCF7 [8]): 3.9%; selectivity ratio [26]: 20.6; selectivity ratio [27]: 28.3; inhibition (MCF7 [19]): Dose-dependent effect; Drug metabolism [28]: Metabolite_Detected
